In ChEMBL document CHEMBL1126318, “Discovery of a potent substance P antagonist: recognition of the key molecular determinant” (J Med Chem, 1992):

Target: Substance-P receptor (Homo sapiens, UniProt P25103)
Assay: In vitro binding affinity for the Tachykinin receptor 1 in human IM-9 cell using [125I]BH-SP of the compound.
Assay type: cell-based

Substance-P receptor, sequence (P25103 whole entry): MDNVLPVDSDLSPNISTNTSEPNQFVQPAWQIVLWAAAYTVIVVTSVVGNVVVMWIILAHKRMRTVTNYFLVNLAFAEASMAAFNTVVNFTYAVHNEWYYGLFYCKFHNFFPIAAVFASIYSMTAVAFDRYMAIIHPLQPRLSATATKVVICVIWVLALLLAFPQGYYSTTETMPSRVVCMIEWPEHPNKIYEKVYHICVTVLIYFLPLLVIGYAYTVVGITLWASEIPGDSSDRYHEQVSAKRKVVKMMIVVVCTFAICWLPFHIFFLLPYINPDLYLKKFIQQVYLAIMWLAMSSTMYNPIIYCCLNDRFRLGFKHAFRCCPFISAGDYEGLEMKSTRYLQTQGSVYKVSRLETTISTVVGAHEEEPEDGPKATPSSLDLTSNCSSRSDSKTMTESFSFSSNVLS

For COc1ccccc1CN[C@H]1CCCN[C@H]1C(c1ccccc1)c1ccccc1 (racemic), the Ki was 49 nM.
